# Results: patent US20150133492A1, “N-desmethyldauricine, A Novel Autophagic Enhancer for Treatment of Cancers and Neurodegenerative Conditions Thereof” (Macau University of Science and Technology, priority 2013, published 2015)
# Columns and labels:
# Format in all cases: cell-based
# [1] = system: panel of human cancer cells; assay: MTT cytotoxicity assay, panel of human cancer cells; conditions: 72 hours, read-out: mean IC50, cell cytotoxicity
# Description: (§1) The test compound of N-desmethyldauricine was dissolved in DMSO at a final concentration of 100 mmol/L and stored at −20° C. Cytotoxicity was assessed using the 3-(4,5-dimethylthiazol-2-yl)-2,5-diphenyltetrazolium bromide assay as previously described^17. Cell number, 4000-8000 of HeLa (human cervical cancer), MCF-7 (human breast cancer), HepG2 (human liver cancer), Hep3B (human liver cancer), H1299 (human lung cancer), A549 (human lung cancer), PC3 (human prostate cancer), LLC-1 (mouse Lewis lung carcinoma) and LO2 (human normal liver) cells were seeded on 96-well plates per well, respectively. After overnight pre-incubation, the cells were exposed to different concentrations of N-desmethyldauricine (namely […], 0.039 μmol) for 3 days. Subsequently, 10 μL of MTT reagents was added to each well and incubated at 37° C. for 4 hours followed by the addition of 100 μL solubilization buffer (10% SDS in 0.01 mol/L HCl) and overnight incubation. Absorbance at 585 nm was determined from each well on the following day. The percentage of cell viability was calculated using the following formula: Cell viability (%)=Cells number treated/Cells number DMSO control×100. Data was obtained from three independent experiments.
# [2] = system: human normal liver cells (LO2); assay: MTT cytotoxicity assay, normal liver cells; conditions: read-out: IC50, cytotoxic effect
# Description: as §1
# PC 12 cells = assay: Crystal violet cell viability assay in PC-12; conditions: 7.5 μM, 24 hours
# Description: For cell viability assay measured by crystal violet staining, PC-12 cells were incubated in 35 mm disc followed by the addition of N-desmethyldauricine at 7.5 μM for 24 hours. The cells were then incubated with crystal violet for 10 minutes followed by a ddH2O wash. The stained cells image was captured by CCD digital camera Spot RT3™ under the Nikon ECLIPSE 80i microscope with 4× magnification. Cell viability was quantified by dissolving stained cells in 10% acetic acid (200 μL/well). The colorimetric reading of the solute mixture was then determined by spectrophotometer at OD 560 nm. The percentage of cell viability was calculated using the following formula: Cell viability (%)=Cells numbertreated/Cells numberDMSO control×100. Data was obtained from three independent experiments.
structure (smiles),measurement,setting,value
COc1cc2c(cc1OC)[C@@H](Cc1ccc(Oc3cc(C[C@H]4NCCc5cc(OC)c(OC)cc54)ccc3O)cc1)N(C)CC2 [N-desmethyldauricine],IC50,[1],8.23 to 19.7 µM
same,IC50,[2],> 62.1 µM
same,toxicity in PC 12 cells,PC 12 cells,no toxicity
